Data set [1] deals with Trypanosoma cruzi, Tulahuen C4 strain, amastigotes stage. The experiment in a line: In vitro activity against T. cruzi. Conditions: Trypanosoma cruzi, TULAHUEN, Tulahuen C4, amastigotes; average of two independent assays; read-out: IC50 T. cruzi. In kind it is cell-based. The procedure: (§1) The in vitro activities against the protozoan parasites T.b. rhodesiense, T. cruzi, L. donovani, and P. falciparum and cytotoxicity assessment against L6 cells were determined as reported elsewhere.

In data set [2] the test system is Plasmodium falciparum, K1 strain, IEF stage. Put plainly: In vitro activity against P. falciparum K1. It is filed as cell-based. Conditions: for IC50: Plasmodium falciparum, K1 dual drug resistant strain, IEF stage, average of two independent assays, read-out: IC50 P. falc. K1; for SI Pf: Selectivity index for P. falciparum = IC50 L6/IC50 Pf. As to the method:
as §1

The test system of data set [3] is L6 rat skeletal myoblast cell line. The experiment in a line: Cytotoxicity against L6 cells. In kind it is cell-based. Conditions: Rattus norvegicus, Myoblast, cytotoxicity, L6 rat skeletal myoblasts; average of two independent assays; read-out: IC50 L6. As to the method: as §1
The subject of data set [4] is Leishmania donovani, MHOM-ET-67/L82 strain, amastigote/axenic stage. Put plainly: In vitro activity against L. donovani. In kind it is cell-based. Conditions: Leishmania donovani, MHOM-ET-67/L82, axenic amastigotes; average of two independent assays; read-out: IC50 L. don. The procedure:
as §1

Data set [5] has as its system Trypanosoma brucei rhodesiense, STIB 900 strain, trypomastigotes stage. The experiment in a line: In vitro activity against T. b. rhodesiense. In kind it is cell-based. Conditions: for IC50: Trypanosoma brucei, STIB 900, trypomastigotes, average of two independent assays, read-out: IC50 T. b. rhod. As to the method: as §1

Structures are written as SMILES. A value given as a limit tells only on which side of the number the result lay.

For `COCCNC(=O)c1ccc2c(n1)C(=O)C1=C(C2=O)S(=O)(=O)C=CN1` [Compound 8i, N-(2-Methoxyethyl)-5,10-dioxo-5,10-dihydro-4H-[1,4]thiazino[2,3-g] quinoline-7-carboxamide 1,1-Dioxide], the melting point (in general, the temperature, or range, at which the solid turns liquid) is 200 °C (dec.). The IC50 (usually the midpoint of a concentration-inhibition curve) in data set [1] amounted to 140 µM. Also, in data set [2], the IC50 was determined as 1.5 µM and the “SI Pf” value is 67. Besides, in data set [3], the IC50 came out at 99 µM. Also, in data set [4], the IC50 stood at 150 µM. Moreover, the IC50 in data set [5] was 13 µM.

Consider `CCCCCCCCNC(=O)c1ccc2c(n1)C(=O)C1=C(C2=O)S(=O)(=O)CCN1` [Compound 7c, N-n-Octyl-5,10-dioxo-3,4,5,10-tetrahydro-2H-[1,4]thiazino[2,3-g]quinoline-7-carboxamide 1,1-Dioxide], for which the melting point was 200 °C (dec.). Moreover, the IC50 in data set [1] is 15 µM. In addition, in data set [2], the IC50 was 1.1 µM and the “SI Pf” value is listed as 10. Moreover, in data set [3], the IC50 was 12 µM. Further, the IC50 in data set [4] turned out to be 48 µM. In data set [5], the IC50 came to 3.9 µM.

Turning to `O=C(NCCCc1ccccc1)c1ccc2c(n1)C(=O)C1=C(C2=O)S(=O)(=O)CCN1` [Compound 7f, N-(3-Phenylpropyl)-5,10-dioxo-3,4,5,10-tetrahydro-2H-[1,4]thiazino[2,3-g] quinoline-7-carboxamide 1,1-Dioxide], the melting point is 204 °C (dec.). Besides, the IC50 in data set [1] turned out to be 27 µM. Further, in data set [2], the IC50 was 1.4 µM and the “SI Pf” value came to 10. Besides, in data set [3], the IC50 was determined as 13 µM. For the same compound, the IC50 in data set [4] is 47 µM. Also, the IC50 in data set [5] turned out to be 2.4 µM.

For `C#CCNC(=O)c1ccc2c(n1)C(=O)C1=C(C2=O)S(=O)(=O)C=CN1` [Compound 8h, N-(Prop-2-yn-1-yl)-5,10-dioxo-5,10-dihydro-4H-[1,4]thiazino[2,3-g]quinoline-7-carboxamide 1,1-Dioxide], the melting point was 230 °C (dec.). The IC50 in data set [1] amounted to 150 µM. Besides, in data set [2], the IC50 stood at 1.7 µM and the “SI Pf” value is reported as 29. In addition, the IC50 in data set [3] was 50 µM. Moreover, in data set [4], the IC50 is 230 µM. In addition, the IC50 in data set [5] worked out at 10 µM.

Take `O=C(NCCc1ccccc1)c1ccc2c(n1)C(=O)C1=C(C2=O)S(=O)(=O)C=CN1` [Compound 8e, N-Phenethyl-5,10-dioxo-5,10-dihydro-4H-[1,4]thiazino[2,3-g]quinoline-7-carboxamide 1,1-Dioxide]: the melting point was 290 °C (dec.). Further, in data set [1], the IC50 stood at 140 µM. In addition, in data set [2], the IC50 came out at 6.5 µM and the “SI Pf” value came out at 8. In data set [3], the IC50 was 52 µM. Besides, the IC50 in data set [4] was 160 µM. Moreover, in data set [5], the IC50 was determined as 0.67 µM. In addition, in data set [5] (selectivity towards T. brucei rhodesiense versus L6), the “SI (T. brucei rhodesiense)” value was 78.

Turning to `O=C(O)c1cc2c(s1)C(=O)C1=C(C2=O)S(=O)(=O)C=CN1` [Compound 12, 5,9-Dioxo-5,9-dihydro-4H-thieno[2′,3′:4,5]benzo[1,2-b][1,4]thiazine-7-carboxylic Acid 1,1-Dioxide], the melting point is 290 °C (dec.). In addition, the IC50 in data set [1] was 210 µM. Moreover, in data set [2], the IC50 turned out to be 0.035 µM and the “SI Pf” value is 4000. Moreover, the IC50 in data set [3] came out at 140 µM. The IC50 in data set [4] was over 290 µM. Also, the IC50 in data set [5] stood at 2.2 µM.

Regarding `CCCCCNC(=O)c1ccc2c(n1)C(=O)C1=C(C2=O)S(=O)(=O)C=CN1` [Compound 8b, N-n-Pentyl-5,10-dioxo-5,10-dihydro-4H-[1,4]thiazino[2,3-g]quinoline-7-carboxamide 1,1-Dioxide], the melting point is 280 °C (dec.). Also, the IC50 in data set [1] amounted to 48 µM. Further, in data set [2], the 50% inhibitory concentration (IC50) turned out to be 1.5 µM and the “SI Pf” value stood at 3. In data set [3], the IC50 was 4.8 µM. The IC50 in data set [4] was over 270 µM. Moreover, the IC50 in data set [5] turned out to be 3.6 µM.

Regarding `CCCCNC(=O)c1ccc2c(n1)C(=O)C1=C(C2=O)S(=O)(=O)C=CN1` [Compound 8a, N-n-Butyl-5,10-dioxo-5,10-dihydro-4H-[1,4]thiazino[2,3-g]quinoline-7-carboxamide 1,1-Dioxide], the melting point is 200 °C (dec.). Moreover, in data set [1], the IC50 came to 63 µM. Further, in data set [2], the IC50 came out at 0.7 µM and the “SI Pf” value is 33. Also, the IC50 in data set [3] is 23 µM. Further, in data set [4], the IC50 was over 280 µM. The IC50 in data set [5] was 3.7 µM.

As for `O=C(NCc1ccccc1)c1ccc2c(n1)C(=O)C1=C(C2=O)S(=O)(=O)C=CN1` [Compound 8d, N-Benzyl-5,10-dioxo-5,10-dihydro-4H-[1,4]thiazino[2,3-g]quinoline-7-carboxamide 1,1-Dioxide], the melting point was 280 °C (dec.). In data set [1], the IC50 turned out to be 160 µM. Moreover, in data set [2], the IC50 amounted to 4.7 µM and the “SI Pf” value was 7. Moreover, the IC50 in data set [3] came out at 34 µM. In addition, the IC50 in data set [4] is over 250 µM. For the same compound, the IC50 in data set [5] is 4.2 µM.

As for `CC(C)=CCC/C(C)=C/CNC(=O)c1ccc2c(n1)C(=O)C1=C(C2=O)S(=O)(=O)C=CN1` [Compound 8g, (E)-N-(3,7-Dimethylocta-2,6-dien-1-yl)-5,10-dioxo-5,10-dihydro-4H-[1,4]thiazino[2,3-g] quinoline-7-carboxamide 1,1-Dioxide], the melting point was 280 °C (dec.). The IC50 in data set [1] came out at 42 µM. Besides, in data set [2], the IC50 is 1.1 µM and the “SI Pf” value was 4. Besides, the IC50 in data set [3] was 4.9 µM. For the same compound, in data set [4], the IC50 was 150 µM. Moreover, the IC50 in data set [5] stood at 2.5 µM.

Turning to `CCCCCNC(=O)c1ccc2c(n1)C(=O)C1=C(C2=O)S(=O)(=O)CCN1` [Compound 7b, N-n-Pentyl-5,10-dioxo-3,4,5,10-tetrahydro-2H-[1,4]thiazino[2,3-g]quinoline-7-carboxamide 1,1-Dioxide], the melting point was 200 °C (dec.). Moreover, the IC50 in data set [1] was 15 µM. Moreover, in data set [2], the IC50 stood at 0.62 µM and the “SI Pf” value was 37. In data set [3], the IC50 came to 23 µM. Besides, the IC50 in data set [4] was 29 µM. Moreover, the IC50 in data set [5] was found to be 1.8 µM.

For the compound `O=C(NCc1ccccc1)c1ccc2c(n1)C(=O)C1=C(C2=O)S(=O)(=O)CCN1` [Compound 7d, N-Benzyl-5,10-dioxo-3,4,5,10-tetrahydro-2H-[1,4]thiazino[2,3-g]quinoline-7-carboxamide 1,1-Dioxide], the melting point was 200 °C (dec.). Also, the IC50 in data set [1] worked out at 43 µM. Moreover, in data set [2], the IC50 was found to be 1.1 µM and the “SI Pf” value was 14. The IC50 in data set [3] was 15 µM. Also, the IC50 in data set [4] amounted to 21 µM. In addition, the IC50 in data set [5] was 1.9 µM.

`CCOC(=O)c1cc2c(o1)C(=O)C1=C(C2=O)S(=O)(=O)CCN1` [Compound 15, Ethyl 5,9-Dioxo-3,4,5,9-tetrahydro-2H-benzofuro[5,6-b][1,4]thiazine-7-carboxylate 1,1-Dioxide] returned a melting point of 277 °C. For the same compound, the IC50 in data set [1] turned out to be 4.7 µM. In data set [2], the IC50 worked out at 0.11 µM and the “SI Pf” value came to 46. Also, in data set [3], the 50% inhibitory concentration (IC50) was found to be 5.1 µM. Also, the IC50 in data set [4] came out at 40 µM. Besides, the IC50 in data set [5] turned out to be 1.1 µM.

The values above are taken from article PMC3806465, “Discovery and Evaluation of Thiazinoquinones as Anti-Protozoal Agents” (Marine Drugs, 2013).
